Laboratory results published in patent publication US9486440B2, “Uses of indole-ketones or indolidones as neuro-protective drugs” (UNIVERSITY OF MACAU, priority 2011, dated 2016).
Entries after “also recorded” stand apart in the source; their conditions may differ.

Key:
[1] = test system: CGNs; test: MPP+-induced neurotoxicity in CGNs, MTT and LDH assays; assay type: cell-based, rat; conditions: for MPP+-induced neurotoxicity, co-administration: co-administrated with 35 μM MPP+, SU4312 10-20 μM, PTK787/ZK222584 10 μM, MTT at 24 hours; for MPP+-induced cell death (cell viability, MTT and LDH assays): pre-treatment 2 hours, then 35 μM MPP+ for 24 hours; for cell proliferative or cytotoxic effects of the drug alone: without MPP+, 26 hours, SU4312 1-30 μM, SU5416 30 μM, sunitinib 2 μM
Experimental: (§1) All animal experiments were conducted according to the ethical guidelines of ICMS, Macau University and the Animal Care Facility, The Hong Kong Polytechnic University. Rat CGNs were prepared from 8-day-old Sprague-Dawley rats (The Animal Care Facility, The Hong Kong Polytechnic University) as described by Li et al., 2005. Briefly, neurons were seeded at a density of 2.7×10^5 cells/ml in basal modified Eagle's medium (Invitrogen) containing 10% fetal bovine serum, 25 mM KCl, 2 mM glutamine, and penicillin (100 units/ml)/streptomycin (100 μg/ml). Cytosine arabinoside (10 μM) was added to the culture medium 24 hour after plating to limit the growth of non-neuronal cells. With the use of this protocol, more than 95% of the cultured cells were granule neurons.
(§2) The percentage of surviving neurons in the presence of SU4312 and/or MPP^+ was estimated by determining the activity of mitochondrial dehydrogenases with 3(4,5-dimethylthiazol-2-yl)-2.5-diphenyltetrazolium bromide (MTT) assay (Li et al., 2007). The assay was performed according to the specifications of the manufacturer (MTT kit I; Roche Applied Science). Briefly, the neurons were cultured in 96-well plates, 10 μl of 5 mg/ml MTT labeling reagent was added to each well containing cells in 100 μl of medium, and the plates were incubated for 4 hours in a humidified incubator at 37° C. After the incubation, 100 μl of the solvating solution (0.01 N HCl in 10% SDS solution) was added to each well for 16-20 hours. Absorbance of the samples was measured at a wavelength of 570 nm with 655 nm as a reference wavelength. Unless otherwise indicated, the extent of MTT conversion in cells exposed to MPP^+ is expressed as a percentage of the control.
Cytotoxicity was determined by measuring the release of lactate dehydrogenase (LDH). Briefly, cells were precipitated by centrifugation at 500 g for 5 min at room temperature, 50 μl of the supernatants was transferred into new wells, and LDH was determined using the in vitro toxicology assay kit (Roche). The absorbance of the samples was measured at a wavelength of 490 nm with 655 nm as a reference wavelength.
as §1, with “Rat” for “All animal experiments were conducted according to the ethical guidelines of ICMS, Macau University and the Animal Care Facility, The Hong Kong Polytechnic University. Rat”, “hours” for “hour”
as §2, with “The” for “The percentage of surviving neurons in the presence of SU4312 and/or MPP^+ was estimated by determining the activity of mitochondrial dehydrogenases with 3(4,5-dimethylthiazol-2-yl)-2.5-diphenyltetrazolium bromide (MTT) assay (Li et al., 2007). The”, “incubated at 37° C.” for “incubated”, “incubator.” for “incubator at 37° C.”, “The absorbance” for “Absorbance”

[2] = test system: zebrafish larvae; test: Locomotion behavioral test of zebrafish larvae; assay type: in vivo; conditions: for MPTP-induced deficit of swimming behavior (total distance travelled): 200 μM MPTP 2 days, then 10 μM MPTP plus drug 3 days, L-deprenyl 20 μM, L-dopa 150 μM
Experimental: Wild-type zebrafish (AB strain) and Tg (fli-1:EGFP) transgenic zebrafish were maintained as described in the Zebrafish Handbook (Westerfield, 1993). Zebrafish embryos were generated by natural pair-wise mating (3-12 months old) and raised at 28.5° C. in embryo medium (13.7 mM NaCl, 540 μM KCl, pH 7.4, 25 μM Na2HPO4, 44 μM KH2PO4, 300 μM CaCl2, 100 μM MgSO4, 420 μM NaHCO3, pH 7.4). […] An equal concentration of DMSO in embryo medium was used as vehicle control in each experiment.
Thus the MPTP exposure needs to last 5 day from 1 dpf. […] Thus subsequent locomotion behavioral studies were done with 200 μM MPTP for treatment for 2 days at 1 dpf then replacing insult with 10 μM MPTP for incubation for another 3 days.
(§3) After drug treatment, zebrafish larvae at 6 dpf were transferred into 96-well plates (1 fish/well and 12 larvae/group). Fishes responded with excessive stress reaction (such as rapid and disorganized swimming or immobility for 2 min) due to the handling and monitoring of the behavior were discarded. The experiments were performed in a calm enclosed area. The larvae were allowed to habituate to the new environment for 30 min prior to experiments. Behavior was monitored by an automated video tracking system (Viewpoint, ZebraLab, LifeSciences). The 96-well plates and camera were housed inside a Zebrabox and the swimming pattern of each fish was recorded for 10 min and repeated 3 times, once every other 10 min. The total distance moved was defined as the distance (in cm) that the fish had moved during one session (10 min).
Normally as late as 3 dpf, zebrafish larvae show very little spontaneous swimming, but by 5 dpf they spontaneously swim longer distances and independently search for food. The MPTP exposure therefore needs to last 5 days from 1 dpf. […] Thus subsequent locomotion behavioral studies were performed with 200 μM MPTP for 2-day treatment at 1 dpf then replacing with media containing 10 μM MPTP for another 3-day incubation.
as §3, with “The larvae were discarded due to” for “Fishes responded with”, “reaction to the handling and monitoring of behavior” for “reaction”, “min).” for “min) due to the handling and monitoring of the behavior were discarded.”, “sealed” for “enclosed”, “min. Swimming behavior” for “min prior to experiments. Behavior”, “for” for “repeated”

| Structure (SMILES) | MPP+-induced neurotoxicity, co-administration [1] | MPP+-induced cell death (cell viability, MTT and LDH assays) [1] | MPTP-induced deficit of swimming behavior (total distance travelled) [2] | swimming behavior of normal zebrafish larvae, drug alone ([2]; zebrafish, in vivo) | cell proliferative or cytotoxic effects of the drug alone [1] | swimming behavior of normal zebrafish larvae, drug alone ([2]; without MPTP) |
| --- | --- | --- | --- | --- | --- | --- |
| Clc1ccc(Nc2nnc(Cc3ccncc3)c3ccccc23)cc1 [PTK787/ZK222584] | did not show neuroprotective effects | at 3-10 μM failed to block neuronal loss in vitro | but not PTK787/ZK222584 ameliorated MPTP-induced deficit of swimming behavior | Neither SU4312 nor PTK787/ZK222584 treatment alone notably altered the swimming behavior |  |  |
| Cc1cc(C)c(/C=C2\C(=O)Nc3ccccc32)[nH]1 [SU5416, (3Z)-3-[(3,5-dimethyl-1H-pyrrol-2-yl)methylidene]-1,3-dihydro-2H-indol-2-one] |  | prevented 35 μM MPP^+-induced cell death in a concentration-dependent manner | ameliorated the MPTP-induced deficit of swimming behavior |  | did not produce any cell proliferative or cytotoxic effects |  |
| CN(C)c1ccc(C=C2C(=O)Nc3ccccc32)cc1 [SU4312, 3-[4-(dimethylamino)benzylidenyl]indolin-2-one] | still had neuroprotective effects | prevented MPP^+-induced cell death in a concentration-dependent manner | ameliorated MPTP-induced deficit of swimming behavior |  | did not affect cell proliferation or show any cytotoxic effects; also recorded: did not induce any neurotoxicity | Neither SU4312 nor PTK787/ZK222584 treatment alone notably altered the swimming behavior |
